Data from patent publication US9695155B2, “Herbicidal substituted pyrimidinyloxy benzene compounds” (E. I. DU PONT DE NEMOURS AND COMPANY, priority 2013, dated 2017).

Assays:
wild poinsettia = test: Test E preemergence; format: in vivo, Euphorbia heterophylla; conditions: for Poinsettia, Wild plant response rating: scale 0 to 100 (0 no effect, 100 complete control); for Plant response rating, Poinsettia, Wild: scale 0 to 100, 0 no effect, 100 complete control
How it was run: (§1)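 Test chemicals formulated in a non-phytotoxic solvent mixture containing a surfactant were applied preemergence to seeds in silt loam soil or postemergence to plants at the 1- to 4-leaf stage in potting mix. After 14 to 21 days in a greenhouse, injury was visually rated against controls on a 0-100 scale (0 = no effect, 100 = complete control).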

surinam grass = test: Test E preemergence; format: in vivo, Brachiaria decumbens; conditions: for Surinam Grass plant response rating: scale 0 to 100 (0 no effect, 100 complete control); for Plant response rating, Surinam Grass: scale 0 to 100, 0 no effect, 100 complete control
How it was run: as §1

giant foxtail = test: Test E preemergence; format: in vivo, Setaria faberii; conditions: for Foxtail, Giant plant response rating: scale 0 to 100 (0 no effect, 100 complete control); for Plant response rating, Foxtail, Giant: scale 0 to 100, 0 no effect, 100 complete control
How it was run: as §1

green foxtail = test: Test E preemergence; format: in vivo, Setaria viridis; conditions: for Foxtail, Green plant response rating: scale 0 to 100 (0 no effect, 100 complete control); for Plant response rating, Foxtail, Green: scale 0 to 100, 0 no effect, 100 complete control
How it was run: as §1

goosegrass = test: Test E preemergence; format: in vivo, Eleusine indica; conditions: for Goosegrass plant response rating: scale 0 to 100 (0 no effect, 100 complete control); for Plant response rating, Goosegrass: scale 0 to 100, 0 no effect, 100 complete control
How it was run: as §1

ragweed = test: Test E preemergence; format: in vivo, Ambrosia elatior; conditions: for Ragweed plant response rating: scale 0 to 100 (0 no effect, 100 complete control); for Plant response rating, Ragweed: scale 0 to 100, 0 no effect, 100 complete control
How it was run: as §1

morningglory = test: Test E preemergence; format: in vivo, Ipomoea coccinea; conditions: for Morningglory plant response rating: scale 0 to 100 (0 no effect, 100 complete control); for Plant response rating, Morningglory: scale 0 to 100, 0 no effect, 100 complete control
How it was run: as §1

nightshade = test: Test E preemergence; format: in vivo, Solanum ptycanthum; conditions: for Nightshade plant response rating: scale 0 to 100 (0 no effect, 100 complete control); for Plant response rating, Nightshade: scale 0 to 100, 0 no effect, 100 complete control
How it was run: as §1

yellow nutsedge = test: Test E preemergence; format: in vivo, Cyperus esculentus; conditions: for Nutsedge, Yellow plant response rating: scale 0 to 100 (0 no effect, 100 complete control); for Plant response rating, Nutsedge, Yellow: scale 0 to 100, 0 no effect, 100 complete control
How it was run: as §1

hairy beggarticks = test: Test E preemergence; format: in vivo, Bidens pilosa; conditions: for Beggarticks plant response rating: scale 0 to 100 (0 no effect, 100 complete control); for Plant response rating, Beggarticks: scale 0 to 100, 0 no effect, 100 complete control
How it was run: as §1

corn = test: Test E postemergence; format: in vivo, Zea mays; conditions: Zea mays, post-emergence
How it was run: as §1

soybean = test: Test E postemergence; format: in vivo, Glycine max; conditions: Glycine max, post-emergence
How it was run: as §1

Brazilian crabgrass = test: Test E postemergence; format: in vivo, Digitaria horizontalis; conditions: Digitaria horizontalis, post-emergence, read-out: Plant response rating, Crabgrass, Brazil
How it was run: as §1

barnyardgrass = test: Test E postemergence; format: in vivo, Echinochloa crus-galli; conditions: Echinochloa crus-galli, post-emergence, read-out: Plant response rating, Barnyardgrass
How it was run: as §1

sandbur = test: Test E postemergence; format: in vivo, Cenchrus echinatus; conditions: Cenchrus echinatus, post-emergence, read-out: Plant response rating, Sandbur
How it was run: as §1

arrowleaf sida = test: Test E postemergence; format: in vivo, Sida rhombifolia; conditions: Sida rhombifolia, post-emergence, read-out: Plant response rating, Arrowleaf Sida
How it was run: as §1

[1] = Postemergence, 31 g ai/ha, scale 0 to 100
[2] = Postemergence, 62 g ai/ha, scale 0 to 100
[3] = Postemergence, 125 g ai/ha, scale 0 to 100
[4] = postemergence, 16 g ai/ha, scale 0 to 100, 0 no effect, 100 complete control

SMILES: N#Cc1cccc(Oc2ncc(Cl)cn2)c1-n1cc(Br)cn1 [Compound 52, 2-(4-bromo-1H-pyrazol-1-yl)-3-[(5-chloro-2-pyrimidinyl)oxy]benzonitrile]
- Poinsettia, Wild plant response rating (wild poinsettia; 16 g ai/ha): 0
- Poinsettia, Wild plant response rating (wild poinsettia; 31 g ai/ha): 0
- Poinsettia, Wild plant response rating (wild poinsettia; 62 g ai/ha): 25
- Plant response rating, Poinsettia, Wild (wild poinsettia; 125 g ai/ha): 50
- Plant response rating, Poinsettia, Wild (wild poinsettia; 250 g ai/ha): 100
- Surinam Grass plant response rating (surinam grass; 16 g ai/ha): 0
- Surinam Grass plant response rating (surinam grass; 31 g ai/ha): 0
- Surinam Grass plant response rating (surinam grass; 62 g ai/ha): 0
- Plant response rating, Surinam Grass (surinam grass; 125 g ai/ha): 10
- Plant response rating, Surinam Grass (surinam grass; 250 g ai/ha): 10
- Foxtail, Giant plant response rating (giant foxtail; 16 g ai/ha): 0
- Foxtail, Giant plant response rating (giant foxtail; 31 g ai/ha): 70
- Foxtail, Giant plant response rating (giant foxtail; 62 g ai/ha): 70
- Plant response rating, Foxtail, Giant (giant foxtail; 125 g ai/ha): 100
- Plant response rating, Foxtail, Giant (giant foxtail; 250 g ai/ha): 100
- Foxtail, Green plant response rating (green foxtail; 16 g ai/ha): 0
- Foxtail, Green plant response rating (green foxtail; 31 g ai/ha): 20
- Foxtail, Green plant response rating (green foxtail; 62 g ai/ha): 75
- Plant response rating, Foxtail, Green (green foxtail; 125 g ai/ha): 80
- Plant response rating, Foxtail, Green (green foxtail; 250 g ai/ha): 100
- Goosegrass plant response rating (goosegrass; 16 g ai/ha): 5
- Goosegrass plant response rating (goosegrass; 31 g ai/ha): 50
- Goosegrass plant response rating (goosegrass; 62 g ai/ha): 65
- Plant response rating, Goosegrass (goosegrass; 125 g ai/ha): 98
- Plant response rating, Goosegrass (goosegrass; 250 g ai/ha): 100
- Ragweed plant response rating (ragweed; 16 g ai/ha): 0
- Ragweed plant response rating (ragweed; 31 g ai/ha): 0
- Ragweed plant response rating (ragweed; 62 g ai/ha): 0
- Plant response rating, Ragweed (ragweed; 125 g ai/ha): 5
- Plant response rating, Ragweed (ragweed; 250 g ai/ha): 70
- Morningglory plant response rating (morningglory; 16 g ai/ha): 0
- Morningglory plant response rating (morningglory; 31 g ai/ha): 5
- Morningglory plant response rating (morningglory; 62 g ai/ha): 35
- Plant response rating, Morningglory (morningglory; 125 g ai/ha): 95
- Plant response rating, Morningglory (morningglory; 250 g ai/ha): 98
- Nightshade plant response rating (nightshade; 16 g ai/ha): 0
- Nightshade plant response rating (nightshade; 31 g ai/ha): 0
- Nightshade plant response rating (nightshade; 62 g ai/ha): 75
- Plant response rating, Nightshade (nightshade; 125 g ai/ha): 98
- Plant response rating, Nightshade (nightshade; 250 g ai/ha): 100
- Nutsedge, Yellow plant response rating (yellow nutsedge; 16 g ai/ha): 0
- Nutsedge, Yellow plant response rating (yellow nutsedge; 31 g ai/ha): 0
- Nutsedge, Yellow plant response rating (yellow nutsedge; 62 g ai/ha): 0
- Plant response rating, Nutsedge, Yellow (yellow nutsedge; 125 g ai/ha): 25
- Plant response rating, Nutsedge, Yellow (yellow nutsedge; 250 g ai/ha): 50
- Beggarticks plant response rating (hairy beggarticks; 16 g ai/ha, preemergence): 0
- Beggarticks plant response rating (hairy beggarticks; 31 g ai/ha, preemergence): 0
- Plant response rating, Beggarticks (hairy beggarticks; Preemergence, 62 g ai/ha): 0
- Plant response rating, Beggarticks (hairy beggarticks; preemergence, 125 g ai/ha): 40
- Plant response rating, Beggarticks (hairy beggarticks; preemergence, 250 g ai/ha): 65
- corn plant response (injury) rating, 0-100 at 31 g/ha (corn; [1]): 10%
- corn plant response (injury) rating, 0-100 at 62 g/ha (corn; [2]): 20%
- corn plant response (injury) rating, 0-100 at 125 g/ha (corn; [3]): 25%
- corn plant response (injury) rating, 0-100 at 16 g/ha (corn; [4]): 10%
- plant response (crop injury) rating, soybean, 0-100 scale at 31 g/ha (soybean; [1]): 75%
- plant response (crop injury) rating, soybean, 0-100 scale at 62 g/ha (soybean; [2]): 90%
- plant response (crop injury) rating, soybean, 0-100 scale at 125 g/ha (soybean; [3]): 95%
- plant response (crop injury) rating, soybean, 0-100 scale at 16 g/ha (soybean; [4]): 70%
- pest or weed control at 31 g/ha (Brazilian crabgrass; [1]): 30%
- pest or weed control at 62 g/ha (Brazilian crabgrass; [2]): 30%
- pest or weed control at 125 g/ha (Brazilian crabgrass; [3]): 40%
- pest or weed control at 16 g/ha (Brazilian crabgrass; [4]): 15%
- pest or weed control at 31 g/ha (barnyardgrass; [1]): 10%
- pest or weed control at 62 g/ha (barnyardgrass; [2]): 20%
- pest or weed control at 125 g/ha (barnyardgrass; [3]): 30%
- pest or weed control at 16 g/ha (barnyardgrass; [4]): 5%
- pest or weed control at 31 g/ha (sandbur; [1]): 10%
- pest or weed control at 62 g/ha (sandbur; [2]): 25%
- pest or weed control at 125 g/ha (sandbur; [3]): 20%
- pest or weed control at 16 g/ha (sandbur; [4]): 15%
- pest or weed control at 31 g/ha (arrowleaf sida; [1]): 60%
- pest or weed control at 62 g/ha (arrowleaf sida; [2]): 70%
- pest or weed control at 125 g/ha (arrowleaf sida; [3]): 70%
- pest or weed control at 16 g/ha (arrowleaf sida; [4]): 50%
